Tested on: DDM-reactive J.RT3/CD8-2 cells
Test: T cell stimulation by DDM after proteinase K or pronase treatment
Format: cell-based
Conditions: 4 hours at 40° C.
Source text: FIG. 4B is a graph depicting the proliferative response of DDM-reactive J.RT3/CD8-2 cells stimulated in the presence of mock treated DDM, DDM treated with proteinase K, DDM treated with pronase, or no antigen.
The Nex antigen is the second peptidic antigen shown to be presented by CD1. The other one, DDM, is presented by CD1a. Although processing of proteins for presentation on MHC Class I and Class II molecules is well characterized, little is known about processing of CD1-presented peptides. […] DDM has no such cleavage sites for proteases. To examine the protease sensitivity of Nex, Nex and DDM were treated with non-specific proteases and T cell stimulation by each antigen was examined.
Pronase is a mixture of endopeptidases and exopeptidases (carboxypeptidases and aminopeptidases) which digests denatured and native proteins into individual amino acids. Proteinase K is an endopeptidase with a preference for cleavage between an aliphatic, aromatic, or hydrophobic and any other amino acid, however, it will digest any peptidic bond if added in excess and over long incubation periods. […]
To test whether treated Nex mixtures were toxic to T cells, T cell stimulation was measured in the presence of a high concentration (10 μg/ml) of treated Nex and a suboptimal concentration of untreated Nex. […]

didehydroxymycobactin [DDM]
ability to stimulate T cell proliferation after protease treatment: did not diminish

From patent US20080226587A1, “METHODS AND COMPOSITIONS FOR IMMUNOMODULATION” (priority 2006, published 2008)
